Like-named read-outs stand apart in the source and are kept apart here.
What was measured:
[1] = system: Puccinia triticina; synonym: Puccinia recondita f. sp. tritici (PUCCRT); experiment: Wheat brown rust (PUCCRT) whole-plant fungicidal test; assay type: in vivo; settings: topical; for pest or weed control at 100 ppm: high volume application; for pest or weed control at 121.5 g/ha: low volume (track spray) application, 121.5 g/H
Procedure: All fungicides were evaluated using the aforementioned method for their activity vs. all target diseases, unless stated otherwise. Wheat leaf blotch and brown rust activity were also evaluated using track spray applications, in which case the fungicides were formulated as EC formulations, containing 0.1% Trycol 5941 in the spray solutions. Wheat plants (variety Yuma) were grown from seed in a greenhouse in 50% mineral soil/50% soil-less Metro mix until the first leaf was fully emerged, with 7-10 seedlings per pot. These plants were inoculated with an aqueous spore suspension of Septoria tritici either prior to or after fungicide treatments. After inoculation the plants were kept in 100% relative humidity (one day in a dark dew chamber followed by two to three days in a lighted dew chamber at 20° C.) to permit spores to germinate and infect the leaf. The plants were then transferred to a greenhouse set at 20° C. for disease to develop. When disease symptoms were fully expressed on the 1st leaves of untreated plants, infection levels were assessed on a scale of 0 to 100 percent disease severity. Percent disease control was calculated using the ratio of disease severity on treated plants relative to untreated plants. Wheat plants (variety Yuma) were grown from seed in a greenhouse in 50% mineral soil/50% soil-less Metro mix until the first leaf was fully emerged, with 7-10 seedlings per pot. These plants were inoculated with an aqueous spore suspension of Puccinia triticina either prior to or after fungicide treatments. […] The plants were then transferred to a greenhouse set at 24° C. for disease to develop. Fungicide formulation, application and disease assessment followed the procedures as described in the Example A.

[2] = system: Mycosphaerella graminicola; anamorph: Septoria tritici (SEPTTR); experiment: Leaf blotch of wheat (SEPTTR) whole-plant fungicidal test; assay type: in vivo; settings: Zymoseptoria tritici, topical; for pest or weed control at 100 ppm: high volume application; for pest or weed control at 121.5 g/ha: low volume (track spray) application, 121.5 g/H
Procedure: All fungicides were evaluated using the aforementioned method for their activity vs. all target diseases, unless stated otherwise. Wheat leaf blotch and brown rust activity were also evaluated using track spray applications, in which case the fungicides were formulated as EC formulations, containing 0.1% Trycol 5941 in the spray solutions. Wheat plants (variety Yuma) were grown from seed in a greenhouse in 50% mineral soil/50% soil-less Metro mix until the first leaf was fully emerged, with 7-10 seedlings per pot. These plants were inoculated with an aqueous spore suspension of Septoria tritici either prior to or after fungicide treatments. After inoculation the plants were kept in 100% relative humidity (one day in a dark dew chamber followed by two to three days in a lighted dew chamber at 20° C.) to permit spores to germinate and infect the leaf. The plants were then transferred to a greenhouse set at 20° C. for disease to develop. When disease symptoms were fully expressed on the 1st leaves of untreated plants, infection levels were assessed on a scale of 0 to 100 percent disease severity. Percent disease control was calculated using the ratio of disease severity on treated plants relative to untreated plants.

[3] = 24 h, 1 Day Protectant, read-out: High Volume activity at 100 ppm PUCCRT 1DP (% disease control rating)
[4] = 24 h, 1 Day Protectant, read-out: Low Volume activity at 121.5 g/H PUCCRT 1DP (% disease control rating)
[5] = 72 h, 3 Day Curative, read-out: High Volume activity at 100 ppm PUCCRT 3DC (% disease control rating)
[6] = 72 h, 3 Day Curative, read-out: Low Volume activity at 121.5 g/H PUCCRT 3DC (% disease control rating)
[7] = 24 h, 1 Day Protectant, read-out: High Volume activity at 100 ppm SEPTTR 1DP (% disease control rating)
[8] = 24 h, 1 Day Protectant, read-out: Low Volume activity at 121.5 g/H SEPTTR 1DP (% disease control rating)
[9] = 72 h, 3 Day Curative, read-out: High Volume activity at 100 ppm SEPTTR 3DC (% disease control rating)
[10] = 72 h, 3 Day Curative, read-out: Low Volume activity at 121.5 g/H SEPTTR 3DC (% disease control rating)

Compound	pest or weed control at 100 ppm [1, 3]	pest or weed control at 121.5 g/ha [1, 4]	pest or weed control at 100 ppm [1, 5]	pest or weed control at 121.5 g/ha [1, 6]	pest or weed control at 100 ppm [2, 7]	pest or weed control at 121.5 g/ha [2, 8]	pest or weed control at 100 ppm [2, 9]	pest or weed control at 121.5 g/ha [2, 10]
CCCC[C@@H]1[C@@H](Cc2ccccc2)CCC[C@H](NC(=O)c2nccc(OC)c2OC(C)=O)C(=O)O[C@H]1C [Compound 1, 2-(((3S,7R,8R,9S)-7-benzyl-8-butyl-9-methyl-2-oxooxonan-3-yl)carbamoyl)-4-methoxypyridin-3-yl acetate]	> 70%	> 70%	> 70%	< 70%	> 70%	> 70%	> 70%	> 70%
CCCC[C@@H]1[C@@H](Cc2ccccc2)CCC[C@H](NC(=O)c2nccc(OC)c2OCOC(C)=O)C(=O)O[C@H]1C [Compound 2, ((2-(((3S,7R,8R,9S)-7-benzyl-8-butyl-9-methyl-2-oxooxonan-3-yl)carbamoyl)-4-methoxypyridin-3-yl)oxy)methyl acetate]	> 70%	> 70%	> 70%	< 70%	> 70%	> 70%	> 70%	> 70%
COc1ccnc(C(=O)N[C@H]2CCC[C@H](CCC(C)C)[C@@H](Cc3ccccc3)[C@H](C)OC2=O)c1OC(C)=O [Compound 4]		> 70%		< 70%		> 70%		> 70%
COc1ccnc(C(=O)N[C@H]2CCC[C@H](Cc3ccccc3)[C@@H](Cc3ccccc3)[C@H](C)OC2=O)c1OC(C)=O [Compound 5]		> 70%		> 70%		> 70%		> 70%
COc1ccnc(C(=O)N[C@H]2CCC[C@H](Cc3ccccc3)[C@@H](Cc3ccccc3)[C@H](C)OC2=O)c1OCOC(C)=O [Compound 6]		> 70%		> 70%		> 70%		> 70%
COc1ccnc(C(=O)N[C@H]2CCC[C@H](Cc3ccccc3)[C@@H](Cc3ccccc3)[C@H](C)OC2=O)c1OCOC(=O)C(C)C [Compound 7, ((2-(((3S,7R,8R,9S)-7,8-dibenzyl-9-methyl-2-oxooxonan-3-yl)carbamoyl)-4-methoxypyridin-3-yl)oxy)methyl isobutyrate]		> 70%		> 70%		> 70%		> 70%
CCOCC(=O)OCOc1c(OC)ccnc1C(=O)N[C@H]1CCC[C@H](Cc2ccccc2)[C@@H](Cc2ccccc2)[C@H](C)OC1=O [Compound 8, ((2-(((3S,7R,8R,9S)-7,8-dibenzyl-9-methyl-2-oxooxonan-3-yl)carbamoyl)-4-methoxypyridin-3-yl)oxy)methyl 2-ethoxyacetate]		> 70%		< 70%		> 70%		> 70%
COc1ccnc(C(=O)N[C@H]2CCC[C@H](Cc3ccccc3)[C@@H](C3CCCC3)[C@H](C)OC2=O)c1OC(C)=O [Compound 9]		> 70%		< 70%		> 70%		> 70%
COc1ccnc(C(=O)N[C@H]2CCC[C@H](Cc3ccccc3)[C@@H](C3CCCC3)[C@H](C)OC2=O)c1OCOC(C)=O [Compound 10]		> 70%		> 70%		> 70%		> 70%
COc1ccnc(C(=O)N[C@H]2CCC[C@H](Cc3ccc(Cl)cc3)[C@@H](CC(C)C)[C@H](C)OC2=O)c1OCOC(C)=O [Compound 12]		> 70%		< 70%		> 70%		> 70%
COc1ccnc(C(=O)N[C@H]2CCC[C@H](Cc3ccc(Cl)cc3)[C@@H](CC(C)C)[C@H](C)OC2=O)c1OC(C)=O [Compound 13]		> 70%		< 70%		> 70%		> 70%
COc1ccnc(C(=O)N[C@H]2CCC[C@H](Cc3ccccc3)[C@@H](CCc3ccccc3)[C@H](C)OC2=O)c1OCOC(C)=O [Compound 15]		> 70%		< 70%		> 70%		> 70%
CCOCC(=O)OCOc1c(OC)ccnc1C(=O)N[C@H]1CCC[C@H](Cc2ccccc2)[C@@H](CCc2ccccc2)[C@H](C)OC1=O [Compound 16]		> 70%		> 70%		> 70%		> 70%
COc1ccnc(C(=O)N[C@H]2CCC[C@H](Cc3ccccc3)[C@@H](CCc3ccccc3)[C@H](C)OC2=O)c1OCOC(=O)C(C)C [Compound 17]		> 70%		< 70%		> 70%		> 70%
COc1ccnc(C(=O)N[C@H]2CCC[C@H](Cc3ccccc3)[C@@H](CCc3ccccc3)[C@H](C)OC2=O)c1OC(C)=O [Compound 18]		< 70%		< 70%		> 70%		> 70%
CCOCC(=O)OCOc1c(OC)ccnc1C(=O)N[C@H]1CCC[C@H](Cc2ccc(Cl)cc2)[C@@H](Cc2ccccc2)[C@H](C)OC1=O [Compound 20]		> 70%		> 70%		> 70%		< 70%
COc1ccnc(C(=O)N[C@H]2CCC[C@H](Cc3ccc(Cl)cc3)[C@@H](Cc3ccccc3)[C@H](C)OC2=O)c1OC(C)=O [Compound 21]		> 70%		< 70%		> 70%		< 70%
COc1ccnc(C(=O)N[C@H]2CCC[C@H](Cc3ccc(C(F)(F)F)cc3)[C@@H](CC(C)C)[C@H](C)OC2=O)c1OC(C)=O [Compound 22]		> 70%		< 70%		> 70%		< 70%
COc1ccnc(C(=O)N[C@H]2CCC[C@H](Cc3ccc(C(F)(F)F)cc3)[C@@H](CC(C)C)[C@H](C)OC2=O)c1OCOC(C)=O [Compound 23]		> 70%		< 70%		> 70%		< 70%
COc1ccnc(C(=O)N[C@H]2CCC[C@H](Cc3ccc(C(F)(F)F)cc3)[C@@H](CC(C)C)[C@H](C)OC2=O)c1OCOC(=O)C(C)C [Compound 24]		< 70%		< 70%		> 70%		< 70%
COc1ccnc(C(=O)N[C@H]2CCC[C@H](Cc3ccc(C(F)(F)F)cc3)[C@@H](Cc3ccccc3)[C@H](C)OC2=O)c1OC(C)=O [Compound 25]		< 70%		< 70%		< 70%		< 70%
COc1ccnc(C(=O)N[C@H]2CCC[C@H](Cc3ccc(C(F)(F)F)cc3)[C@@H](Cc3ccccc3)[C@H](C)OC2=O)c1OCOC(C)=O [Compound 26]		> 70%		< 70%		> 70%		< 70%
